Assay results reported in PubChem BioAssay (NCI).
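These data come from cells grown in 96-well plates and exposed to compound for 48 hours at five concentrations. GI50 is the concentration that inhibits growth by half. The concentration for full growth arrest is given as TGI.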

Experiments:
Assay in all cases: inhibition of tumour cell growth, NCI panel, 48 h
[1] = system: CAKI-1 renal
[2] = system: HCC-2998 colon
[3] = system: HOP-92 NSCLC
[4] = system: NCI-H460 lung
[5] = system: NCI-H522 lung
[6] = system: OVCAR-5 ovarian
[7] = system: SK-MEL-2 melanoma
[8] = system: TK-10 renal
[9] = system: UO-31 renal
[10] = system: PC-3 prostate

Compound | TGI [1] | TGI [2] | TGI [3] | TGI [4] | TGI [5] | TGI [6] | TGI [7] | TGI [8] | TGI [9] | TGI [10] | GI50 [1] | GI50 [3] | GI50 [4] | GI50 [5] | GI50 [6] | GI50 [10] | GI50 [7] | GI50 [8] | GI50 [9] | GI50 [2]
CSC(=NC(=O)c1ccccc1)SCCSC(=NC(=O)c1ccccc1)SC | > 100 µM | > 100 µM | 83.4 µM | > 100 µM | > 100 µM | > 100 µM | > 100 µM | > 100 µM | > 100 µM |  |  |  |  |  |  |  |  |  |  | 
C/C(CC(=O)Nc1cccc([N+](=O)[O-])c1)=N/NC(N)=S |  | > 100 µM | > 100 µM | > 100 µM | > 100 µM | > 100 µM | > 100 µM | > 100 µM | > 100 µM |  |  |  |  |  |  |  |  |  |  | 
CN(CCc1ccccn1)/[N+]([O-])=N/O (tested in a mixture with another compound) | > 100 µM | > 100 µM | > 100 µM | > 100 µM |  | > 100 µM | > 100 µM |  | > 100 µM |  |  |  |  |  |  |  |  |  |  | 
CC1=C(C(=O)Nc2ccccc2C)C(c2ccccc2O)C(C(=O)Nc2ccccc2C)=C(C)N1 | > 100 µM | 29.6 µM | > 100 µM | 31.1 µM |  | 82.2 µM | 35.3 µM | 86 µM | 38.4 µM |  |  |  |  |  |  |  |  |  |  | 
COC(=O)/C=C(C)/C=C/c1c(C)c(C(C)=O)c(C)n1C | > 100 µM | > 100 µM | 92.8 µM |  | > 100 µM | > 100 µM |  | > 100 µM | > 100 µM |  |  |  |  |  |  |  |  |  |  | 
O=C1C(c2ccccc2)=[N+]([O-])c2cc([N+](=O)[O-])ccc21 |  | 77.4 µM | 64.5 µM | 56.8 µM | 29.1 µM | > 100 µM | > 100 µM | 52.4 µM | > 100 µM |  |  |  |  |  |  |  |  |  |  | 
CC(C)c1ccc(C(O)(C(=O)O)c2ccc(C(C)C)cc2)cc1 | > 100 µM |  | > 100 µM | > 100 µM | > 100 µM | > 100 µM |  | > 100 µM | > 100 µM | 51.1 µM |  |  |  |  |  |  |  |  |  | 
COc1ccc2c(c1)C(=O)/C(=C/c1cccc(OCC(=O)c3ccc([N+](=O)[O-])cc3)c1)CO2 | 10.4 µM |  | 15.8 µM | 11.6 µM | 9.41 µM | 5.08 µM | 4.2 µM | 7.49 µM | 4.02 µM | 7.95 µM | 3.85 µM | 3.16 µM | 3.2 µM | 3.5 µM | 2.34 µM | 2.13 µM | 1.64 µM | 2.97 µM | 1.47 µM | 
C=C1CCCC2OC(OC)CCC12 (stereo unspecified) | > 100 µM | > 100 µM | > 100 µM | > 100 µM | > 100 µM | > 100 µM | > 100 µM | > 100 µM | > 100 µM |  |  |  |  |  |  |  |  |  |  | 
CC[C@@]1(O)C(=O)OCc2c1cc1n(c2=O)Cc2cc3cccc(N)c3nc2-1 |  | 48.1 µM | > 100 µM | 11.2 µM | > 100 µM | > 100 µM | 65.6 µM | > 100 µM | > 100 µM |  |  | > 100 µM | 1.38 µM | 3.92 µM | 25.8 µM |  | 29.7 µM | > 100 µM | 8.44 µM | 16.6 µM
COc1ccc(C(=O)Nc2ccn(CCOC(=O)c3ccc(OC)cc3)c(=O)n2)cc1 | > 100 µM |  | > 100 µM | > 100 µM | > 100 µM | > 100 µM | > 100 µM | > 100 µM | > 100 µM |  |  |  |  |  |  |  |  |  |  | 
